EP0565593B1, “REDUCING PESTICIDAL INTERACTIONS IN CROPS” (priority 1990, dated 1992)
Where “and” joins values, the source holds several entries; their conditions need not be identical. Equal entries are not always repeated. Where two headings read alike, the source gives them in different places.

How the values were obtained:
Velvetleaf (VELE) [1] = type: in vivo, Abutilon theophrasti
Giant foxtail (GIFT) = test: whole plant or invertebrate; type: in vivo
Corn [2] = tested on: Corn
Shattercane (SHCA) = type: in vivo
Velvetleaf (VELE) [3] = test: whole plant or invertebrate; type: in vivo, Abutilon theophrasti
Corn [4] = tested on: Corn; remark: listed apart in the source
[5] = […], observed 8 days later (Table 32)
[6] = […], observed 8 days later (Table 33)
[7] = […], PPI, 14 days after PPI (Table 34)
[8] = […], observed 7 days after POE (Table 35)
[9] = […], observed 7 days after POE (Table 36)
[10] = […], observed 9 days later (Table 29)
[11] = […], observed 9 days later (Table 30)
[12] = […], PPI, 13 days after PPI (Table 31)
[13] = Antidote 4.48 + Biocide No. 1 8.96 Kg/Ha PPI, Herb. No. 8 0.07, 5 DAP, before herbicide application
[14] = Antidote 4.48 + Biocide No. 1 8.96 Kg/Ha PPI, Herb. No. 8 0.07 POE, 13 DAP
[15] = Antidote 4.48 + Biocide No. 1 8.96 Kg/Ha PPI, Herbicide No. 7 0.28 POE, 13 days after planting
[16] = Herb. […], 5 DAP, before herbicide application
[17] = Herb. […], 13 DAP, after herbicide application
[18] = Table 14: Herbicide No. 7 (ACCENT) 0.84 Kg/Ha POE + Biocide No. 2 8.96 Kg/Ha PPI + antidote 4.48 Kg/Ha PPI, 13 days after planting, 8 days after herbicide
[19] = […], 13 days after planting, 8 days after herbicide
[20] = […], observed 10 days after herbicide application

C#CCOC(=O)COC(c1ccccc1)c1ccccc1 [compound 54]
% Inhibition VELE (Velvetleaf (VELE) [1]; [5]): 90% | % Inhibition VELE (Velvetleaf (VELE) [1]; [6]): 65% | % Inhibition GIFT (Giant foxtail (GIFT); [7]): 60% | % Inhibition Corn (Corn [2]; [7]): 55% | % Inhibition SHCA (Shattercane (SHCA); [5]): 70% | % Inhibition SHCA (Shattercane (SHCA); [6]): 20% | % Inhibition VELE (Velvetleaf (VELE) [3]; [7]): 90% | % Inhibition Corn (Corn [4]; [5]): 30% | % Inhibition Corn (Corn [4]; [6]): 55%

NC(=S)COC(c1ccccc1)c1ccccc1 [compound 46]
% Inhibition VELE (Velvetleaf (VELE) [1]; [5]): 90% | % Inhibition VELE (Velvetleaf (VELE) [1]; [6]): 70% | % Inhibition GIFT (Giant foxtail (GIFT); [7]): 60% | % Inhibition Corn (Corn [2]; [7]): 65% | % Inhibition SHCA (Shattercane (SHCA); [5]): 70% | % Inhibition SHCA (Shattercane (SHCA); [6]): 25% | % Inhibition VELE (Velvetleaf (VELE) [3]; [7]): 85% | % Inhibition Corn (Corn [4]; [5]): 50% | % Inhibition Corn (Corn [4]; [6]): 55%

O=C(Oc1ccccc1)c1sc(Cl)nc1C(F)(F)F [compound 64]
% Inhibition VELE (Velvetleaf (VELE) [1]; [8]): 75% | % Inhibition VELE (Velvetleaf (VELE) [1]; [9]): 70% | % Inhibition GIFT (Giant foxtail (GIFT); in vivo): 70% | % Inhibition Corn (Corn [2]; in vivo): 60% | % Inhibition SHCA (Shattercane (SHCA); [8]): 65% | % Inhibition SHCA (Shattercane (SHCA); [9]): 35% | % Inhibition VELE (Velvetleaf (VELE) [3]; in vivo): 90% | % Inhibition Corn (Corn [4]; [8]): 20% | % Inhibition Corn (Corn [4]; [9]): 60%

CCCCCCOC(=O)c1sc(Cl)nc1C(F)(F)F [compound 62]
% Inhibition VELE (Velvetleaf (VELE) [1]; [8]): 80% | % Inhibition VELE (Velvetleaf (VELE) [1]; [9]): 60% | % Inhibition GIFT (Giant foxtail (GIFT); in vivo): 75% | % Inhibition Corn (Corn [2]; in vivo): 65% | % Inhibition SHCA (Shattercane (SHCA); [8]): 65% | % Inhibition SHCA (Shattercane (SHCA); [9]): 30% | % Inhibition VELE (Velvetleaf (VELE) [3]; in vivo): 95% | % Inhibition Corn (Corn [4]; [8]): 30% | % Inhibition Corn (Corn [4]; [9]): 55%

CCOC(=O)CNC(c1ccc(OC)cc1)c1ccc(OC)cc1 [compound 43]
% Inhibition VELE (Velvetleaf (VELE) [1]; [5]): 85% | % Inhibition VELE (Velvetleaf (VELE) [1]; [6]): 75% | % Inhibition GIFT (Giant foxtail (GIFT); [7]): 70% | % Inhibition Corn (Corn [2]; [7]): 80% | % Inhibition SHCA (Shattercane (SHCA); [5]): 65% | % Inhibition SHCA (Shattercane (SHCA); [6]): 35% | % Inhibition VELE (Velvetleaf (VELE) [3]; [7]): 90% | % Inhibition Corn (Corn [4]; [5]): 55% | % Inhibition Corn (Corn [4]; [6]): 65%

O=C(O)COc1cc(C(F)(F)F)cc(C(F)(F)F)c1 [compound 71]
% Inhibition VELE (Velvetleaf (VELE) [1]; [8]): 85% | % Inhibition VELE (Velvetleaf (VELE) [1]; [9]): 75% | % Inhibition GIFT (Giant foxtail (GIFT); in vivo): 70% | % Inhibition Corn (Corn [2]; in vivo): 30% | % Inhibition SHCA (Shattercane (SHCA); [8]): 65% | % Inhibition SHCA (Shattercane (SHCA); [9]): 30% | % Inhibition VELE (Velvetleaf (VELE) [3]; in vivo): 90% | % Inhibition Corn (Corn [4]; [8]): 20% | % Inhibition Corn (Corn [4]; [9]): 45%

O=C(C(Cl)Cl)N1CCCC12CCCC2 [compound 19]
% Inhibition VELE (Velvetleaf (VELE) [1]; [6]): 70% | % Inhibition VELE (Velvetleaf (VELE) [1]; [10]): 95% | % Inhibition VELE (Velvetleaf (VELE) [1]; [11]): 70% | % Inhibition GIFT (Giant foxtail (GIFT); [12]): 75% | % Inhibition GIFT (Giant foxtail (GIFT); [7]): 65% | % Inhibition Corn (Corn [2]; [12]): 55% | % Inhibition Corn (Corn [2]; [7]): 35% | % Inhibition SHCA (Shattercane (SHCA); [6]): 30% | % Inhibition SHCA (Shattercane (SHCA); [10]): 80% | % Inhibition SHCA (Shattercane (SHCA); [11]): 30% | % Inhibition VELE (Velvetleaf (VELE) [3]; [12]): 80% | % Inhibition VELE (Velvetleaf (VELE) [3]; [7]): 90% | % Inhibition Corn (Corn [4]; [6]): 55% | % Inhibition Corn (Corn [4]; [10]): 20% | % Inhibition Corn (Corn [4]; [11]): 35%

CC1(C)OC(c2cccs2)CN1C(=O)C(Cl)Cl (stereo not drawn) [compound 22]
% Inhibition VELE (Velvetleaf (VELE) [1]; [10]): 85% | % Inhibition VELE (Velvetleaf (VELE) [1]; [11]): 75% | % Inhibition GIFT (Giant foxtail (GIFT); [12]): 70% | % Inhibition Corn (Corn [2]; [12]): 45% | % Inhibition SHCA (Shattercane (SHCA); [10]): 65% | % Inhibition SHCA (Shattercane (SHCA); [11]): 25% | % Inhibition VELE (Velvetleaf (VELE) [3]; [12]): 80% | % Inhibition Corn (Corn [4]; [10]): 20% | % Inhibition Corn (Corn [4]; [11]): 40%

O=C(COC(c1ccccc1)c1cccc(C(F)(F)F)c1)OCC(F)(F)F (stereo not drawn) [compound 53]
% Inhibition VELE (Velvetleaf (VELE) [1]; [5]): 85% | % Inhibition VELE (Velvetleaf (VELE) [1]; [6]): 70% | % Inhibition GIFT (Giant foxtail (GIFT); [7]): 70% | % Inhibition Corn (Corn [2]; [7]): 60% | % Inhibition SHCA (Shattercane (SHCA); [5]): 80% | % Inhibition SHCA (Shattercane (SHCA); [6]): 25% | % Inhibition VELE (Velvetleaf (VELE) [3]; [7]): 100% | % Inhibition Corn (Corn [4]; [5]): 50% | % Inhibition Corn (Corn [4]; [6]): 50%

Cc1ccc(SC2(C#N)CC2)cc1C [compound 73]
% Inhibition VELE (Velvetleaf (VELE) [1]; [8]): 75% | % Inhibition VELE (Velvetleaf (VELE) [1]; [9]): 70% | % Inhibition GIFT (Giant foxtail (GIFT); in vivo): 90% | % Inhibition Corn (Corn [2]; in vivo): 70% | % Inhibition SHCA (Shattercane (SHCA); [8]): 70% | % Inhibition SHCA (Shattercane (SHCA); [9]): 35% | % Inhibition VELE (Velvetleaf (VELE) [3]; in vivo): 90% | % Inhibition Corn (Corn [4]; [8]): 70% | % Inhibition Corn (Corn [4]; [9]): 70%

CCOC(=O)CNC(c1ccc(Cl)cc1)c1ccc(Cl)cc1 [compound 44]
% Inhibition VELE (Velvetleaf (VELE) [1]; [5]): 85% | % Inhibition VELE (Velvetleaf (VELE) [1]; [6]): 65% | % Inhibition GIFT (Giant foxtail (GIFT); [7]): 65% | % Inhibition Corn (Corn [2]; [7]): 75% | % Inhibition SHCA (Shattercane (SHCA); [5]): 80% | % Inhibition SHCA (Shattercane (SHCA); [6]): 30% | % Inhibition VELE (Velvetleaf (VELE) [3]; [7]): 95% | % Inhibition Corn (Corn [4]; [5]): 65% | % Inhibition Corn (Corn [4]; [6]): 60%

CCOC(=O)c1cnoc1-c1ccc(Cl)cc1Cl [compound 30]
% Inhibition 5 DAP VELE (Velvetleaf (VELE) [1]; [13]): 75% | % Inhibition 13 DAP VELE (Velvetleaf (VELE) [1]; [14]): 95% | % Inhibition VELE (Velvetleaf (VELE) [1]; [15]): 95% | % Inhibition 5 DAP VELE (Velvetleaf (VELE) [1]; [16]): 90% | % Inhibition 13 DAP VELE (Velvetleaf (VELE) [1]; [17]): 95% | % Inhibition VELE (Velvetleaf (VELE) [1]; [18]): 100% | % Inhibition VELE (Velvetleaf (VELE) [1]; [19]): 100% | % Inhibition VELE (Velvetleaf (VELE) [1]; [20]): 95% | % Inhibition 5 DAP VELE (Velvetleaf (VELE) [1]; in vivo): 80% | % Inhibition 13 DAP VELE (Velvetleaf (VELE) [1]; in vivo): 95% | % Inhibition GIFT (Giant foxtail (GIFT); in vivo): 65% and 80% and 90% and 75% and 95% | % Inhibition 5 DAP SHCA (Shattercane (SHCA); [13]): 50% | % Inhibition 13 DAP SHCA (Shattercane (SHCA); [14]): 75% | % Inhibition SHCA (Shattercane (SHCA); [15]): 85% | % Inhibition 13 DAP SHCA (Shattercane (SHCA); [17]): 95% | % Inhibition SHCA (Shattercane (SHCA); [18]): 90% | % Inhibition SHCA (Shattercane (SHCA); [19]): 90% | % Inhibition SHCA (Shattercane (SHCA); [20]): 70% | % Inhibition 5 DAP SHCA (Shattercane (SHCA); in vivo): 25% | % Inhibition 13 DAP SHCA (Shattercane (SHCA); in vivo): 95% | % Inhibition SHCA (Shattercane (SHCA); in vivo): 90% and 60% and 70% | % Inhibition VELE (Velvetleaf (VELE) [3]; in vivo): 90% and 95% and 100% | % Inhibition 5 DAP Corn (Corn [4]; [13]): 10% | % Inhibition 13 DAP Corn (Corn [4]; [14]): 50% | % Inhibition Corn (Corn [4]; [15]): 55% | % Inhibition 5 DAP Corn (Corn [4]; [16]): 0% | % Inhibition Corn (Corn [4]; [18]): 30% | % Inhibition Corn (Corn [4]; [19]): 25% | % Inhibition Corn (Corn [4]; [20]): 70% | % Inhibition 5 DAP Corn (Corn [4]; in vivo): 10% | % Inhibition 13 DAP Corn (Corn [4]; in vivo): 56% | % Inhibition Corn (Corn [4]; in vivo): 50% and 35% and 40% | effect on corn before application of the herbicide (Corn [4]; in vivo): Some injury
